According to patent publication US6809193B2, “Antisense oligonucleotide compositions and methods for the modulation of JNK proteins” (ISIS Pharmaceuticals, Inc., priority 1997, dated 2004):
Strand notation (5' to 3'): a small letter for the sugar, then the base; units joined by * are phosphorothioate-linked, units joined directly phosphodiester-linked; [ ] holds rarer units or linkages, { } end groups; capitals alone tell only the bases. Where a SMILES comes first, the peptide text is derived from it. The star is where a group is joined. e = 2'-O-(2-methoxyethyl) (MOE); [5mC] = 5-methylcytosine; Cbz = O=C(OCc1ccccc1)*; d = 2'-deoxy (DNA); CH2F = FC*

How the values were obtained:
[1] = test system: JNK2 mRNA; assay: Northern assay, JNK2 mRNA expression in A549 cells; assay type: cell-based, human; settings: for inhibition of JNK2 mRNA expression: 400 nM, Northern assay, Table 12; for dose- and sequence-dependent response on JNK2 mRNA levels: A549 cells, 50, 100, 200 and 400 nM
Experimental: In order to evaluate the activity of potential JNK-modulating oligonucleotides, human lung carcinoma cell line A549 (American Type Culture Collection, 10801 University Boulevard, Manassas, Va. 20110-2209, No. ATCC CCL-185) cells or other cell lines as indicated in the Examples, were grown and treated with oligonucleotides or control solutions as detailed below. After harvesting, cellular extracts were prepared and examined for specific JNK mRNA levels or JNK protein levels (i.e., Northern or Western assays, respectively). In all cases, “% expression” refers to the amount of JNK-specific signal in an oligonucleotide-treated cell relative to an untreated cell (or a cell treated with a control solution that lacks oligonucleotide), and “% inhibition” is calculated as
100%−%Expression=%Inhibition.
The mRNA expression of each JNK protein was determined by using a nucleic acid probe specifically hybridizable thereto. Nucleic acid probes specific for JNK1, JNK2 and JNK3 are described in Examples 3, 4 and 5, respectively. The probes were radiolabelled by means well known in the art (see, e.g., Short Protocols in Molecular Biology, 2nd Ed., Ausubel et al., Eds., John Wiley & Sons, New York, 1992, pages 3-11 to 2-3-44 and 4-17 to 4-18; Ruth, Chapter 6 In: Methods in Molecular Biology, Vol. 26: Protocols for Oligonucleotide Conjugates, Agrawal, ed., Humana Press Inc., Totowa, N.J., 1994, pages 167-185; and Chapter 10 In: Molecular Cloning: A Laboratory Manual, 2nd Ed., Sambrook et al., Eds., pages 10.1-10.70). The blots were stripped and reprobed with a ^32P-labeled glyceraldehyde 3-phosphate dehydrogenase (G3PDH) probe (Clontech Laboratories, Inc., Palo Alto, Calif.) in order to confirm equal loading of RNA and to allow the levels of JNK transcripts to be normalized with regard to the G3PDH signals.
A549 cells were grown in T-75 flasks until 80-90% confluent. At this time, the cells were washed twice with 10 mL of media (DMEM), followed by the addition of 5 mL of DMEM containing 20 μg/mL of LIPOFECTIN™ (i.e., 1:1 (w/w) DOTMA/DOPE, Life Technologies, Gaithersburg, Md.; DOTMA=N-[1-(2,3-dioleyoxy)propyl]-N,N,N-trimethylammonium chloride; DOPE=dioleoyl phosphatidylethanolamine). The oligonucleotides were added from a 10 μM stock solution to a final concentration of 400 nM, and the two solutions were mixed by swirling the flasks. As a control, cells were treated with LIPOFECTIN™ without oligonucleotide under the same conditions and for the same times as the oligonucleotide-treated samples. After 4 hours at 37° C., the medium was replaced with fresh DMEM containing 10% serum. The cells were allowed to recover for 18 hours. Total cellular RNA was then extracted in guanidinium, subject to gel electrophoresis and transferred to a filter according to techniques known in the art (see, e.g., Chapter 7 In: Molecular Cloning: A Laboratory Manual, 2nd Ed., Sambrook et al., Eds., pages 7.1-7.87, and Short Protocols in Molecular Biology, 2nd Ed., Ausubel et al., Eds., John Wiley & Sons, New York, 1992, pages 2-24 to 2-30 and 4-14 to 4-29). Filters were typically hybridized overnight to a probe specific for the particular JNK gene of interest in hybridization buffer (25 mM KPO4, pH 7.4; 5×SSC; 5× Denhardt's solution, 100 μg/ml Salmon sperm DNA and 50% formamide) (Alahari et al., Nucl. Acids Res., 1993, 21, 4079). This was followed by two washes with 1×SSC, 0.1% SDS and two washes with 0.25×SSC, 0.1% SDS. Hybridizing bands were visualized by exposure to X-OMAT AR film and quantitated using a PHOSPHORIMAGER™ essentially according to the manufacturer's instructions (Molecular Dynamics, Sunnyvale, Calif.).
In initial screenings of a set of oligonucleotides derived from the JNK2 sequence (Table 9) for biological activity, a cDNA clone of JNK2 (Kallunki et al., Genes & Development, 1994, 8, 2996) was radiolabeled and used as a JNK2-specific probe in Northern blots. […]

[2] = test system: MDA-MB-231 tumors; assay: MDA-MB-231 human tumor xenograft in nude mice; assay type: in vivo; settings: MDA-MB-231 tumors, 25 mg/kg intravenous once daily
Excerpt: Approximately 5×10^6 breast adenocarcinoma cells (cell line MDA-MB-231; American Type Culture Collection, 10801 University Boulevard, Manassas, Va. 20110-2209, No. ATCC HTB-26) were implanted subcutaneously in the right inner thigh of nude mice (n=6 for each of three sets of mice). Oligonucleotides ISIS 15346 (JNK1, SEQ ID NO:16) and 15353 (JNK2, SEQ ID NO:31) were suspended in saline and administered once daily to two sets of mice on the first day the tumor volume was about 100 mm^3. A saline-only (0.9% NaCl) solution was given to a third set of animals as a control. Oligonucleotides were given by intravenous injection at a dosage of 25 mg/kg. Tumor size was measured and tumor volume was calculated on days 12, 19, 26 and 33 following tumor cell inoculation.

[3] = test system: rat JNK1 mRNA; assay: Northern assay, rat JNK1 (p54?) mRNA in A10 cells; assay type: cell-based; settings: Table 20
Experimental: (§1) In order to study the role of JNK proteins in animal models, oligonucleotides targeted to the genes encoding JNK1, JNK2 and JNK3 of Rattus norvegicus were prepared. These oligonucleotides are 2′-methoxyethoxy, phosphodiester/2′-hydroxyl, phosphorothioate/2′-methoxyethoxy, phosphodiester “gapmers” in which every cytosine residue is 5-methylcytosine (msc). These antisense compounds were synthesized according to the methods of the disclosure. Certain of these oligonucleotides are additionally specifically hybridizable to JNK genes from other species as indicated herein. The oligonucleotides described in this Example were tested for their ability to modulate rat JNK mRNA levels essentially according to the methods described in the preceding Examples, with the exceptions that the cell line used was rat A10 aortic smooth muscle cells (ATCC No. ATCC CRL-1476) and the probes used were specific for rat JNK1, JNK2 or JNK3 (see infra). A10 cells were grown and treated with oligonucleotides essentially as described by (Cioffi et al. Mol. Pharmacol., 1997, 51, 383).
(§2) These antisense compounds were tested for their ability to modulate levels of p54? (JNK1) and p54a (JNK2) mRNA in A10 cells via Northern assays. Due to the high degree of sequence identity between the human and rat genes, radiolabeled human JNK1 (Example 3) and JNK2 (Example 4) cDNAs functioned as specific probes for the rat homologs.
(§3) A dose response study was conducted using oligonucleotides targeted to rat JNK1 (ISIS 21859; SEQ ID NO:113) and JNK2 (ISIS 18259; SEQ ID NO:130) and Northern assays.

[4] = test system: rat JNK2 mRNA; assay: Northern assay, rat JNK2 (p54a) mRNA in A10 cells; assay type: cell-based; settings: rat JNK1 and JNK2 mRNA, A10 cells
Experimental: as §1, §2
These antisense compounds were tested for their ability to modulate levels of p54a (JNK2) mRNA in A10 cells using the radiolabeled human JNK2 cDNA as a probe as described supra. Oligonucleotides showing levels of inhibition from≧about 60% to about 100% of rat JNK2 mRNA levels include ISIS Nos. 18254, 18255, 18257, 18258, 18259, 18260 and 18265 (SEQ ID NOS:125, 126, 128, 129, 130, 131 and 136, respectively). These oligonucleotides are preferred embodiments of the invention for modulating rat JNK2 expression. […] These oligonucleotides are thus more preferred embodiments of the invention for modulating rat JNK2 expression. ISIS 18259 (SEQ ID NO:130) was chosen for use in further studies (infra).
as §3

[5] = test system: HUVEC; assay: Apoptosis in HUVEC, percent hypodiploid cells by flow cytometry; assay type: cell-based, human; settings: HUVEC treated with JNK2 oligonucleotide plus the agent
[6] = test system: JNK1 mRNA; assay: Northern assay, JNK1 mRNA expression in A549 cells; assay type: cell-based, human

Compound: 12567 (antisense dG*dG*dT*dC*dC*dC*dG*dT*dC*dG*dA*dG*dG*dC*dA*dT*dC*dA*dA*dG) [compound 12567]
- % EXPRESSION ([1]; JNK2 mRNA, A549 cells, 400 nM oligonucleotide, relative to control): 18%

Compound: 15353 (antisense eG*eT*e[5mC]*e[5mC]*eG*dG*dG*dC*dC*dA*dG*dG*dC*dC*eA*eA*eA*eG*eT*e[5mC]) [compound 15353]
- inhibition of JNK2 mRNA expression [1]: approximately 80%
- tumor growth compared to the saline control [2]: inhibited tumor growth compared to the saline control

Compound: 15354 (antisense eGeTe[5mC]e[5mC]eG*dG*dG*dC*dC*dA*dG*dG*dC*dC*eAeAeAeGeTe[5mC]) [compound 15354]
- inhibition of JNK2 mRNA expression [1]: approximately 80%

Compound: 21861 (antisense CGGTAGGCTCGCTTAGCATG; 2'-O-methyl wings, phosphorothioate gap, chemistry not fully specified) [compound 21861]
- inhibition of rat JNK1 mRNA levels [3]: at least 90%
- capacity to modulate both JNK1 and JNK2 (Pan JNK) [4]: demonstrated a capacity to modulate both JNK1 and JNK2

Compound: 21867 (antisense AGCTTCGTCTACGGAGATCC; 2'-O-methyl wings, phosphorothioate gap, chemistry not fully specified) [compound 21867]
- inhibition of rat JNK1 mRNA levels [3]: at least 90%
- capacity to modulate both JNK1 and JNK2 (Pan JNK) [4]: demonstrated a capacity to modulate both JNK1 and JNK2

Compound: C[C@@H]1C[C@@H]([C@H](O)CC2CC(=O)NC(=O)C2)C(=O)[C@@H](C)C1 [cyclohexamide]
- effect on JNK2 oligonucleotide-induced cell death (apoptosis) [5]: had no effect on apoptosis

Compound: COC(=O)C[C@H](NC(=O)[C@H](C)NC(=O)[C@@H](NC(=O)OCc1ccccc1)C(C)C)C(=O)CF [z-FAD.fmk, z-VAD.fmk] (Cbz-Val-Ala-Asp(OMe)-CH2F)
- effect on JNK2 oligonucleotide-induced cell death (apoptosis) [5]: decreased

Compound: CTC-TCT-GTA-GGC-CCG-CTT-GG (antisense dC*dT*dC*dT*dC*dT*dG*dT*dA*dG*dG*dC*dC*dC*dG*dC*dT*dT*dG*dG) [ISIS 12539, human JNK1 antisense, fully P=S and fully 2′-deoxy]
- dose- and sequence-dependent response on JNK2 mRNA levels [1]: dependent on dose in an approximately linear fashion
- dose- and sequence-dependent response on JNK1 mRNA levels ([6]; A549 cells, 50, 100, 200 and 400 nM): dependent on dose in an approximately linear fashion
- % Inhibition ([6]; JNK1 mRNA time course, 48 h): greater than or equal to 80%

Compound: G^SA^SC^ST^ST^ST^SG^SG^SC^SC^ST^SG^SG^SC^SC^SC^SG^SG^SA^SC (GACTTTGGCCTGGCCCGGAC; DNA, all phosphorothioate, methylation of C not given here) [ISIS 14318, 12560 sense control, 2′-deoxy-phosphorothioate, reference compound]
- dose- and sequence-dependent response on JNK2 mRNA levels [1]: neither of the control oligonucleotides effect any consistent response

Compound: G^ST^SG^SC^SG^SC^SG^SC^SG^SA^SG^SC^SC^SC^SG^SA^SA^SA^ST^SC (GTGCGCGCGAGCCCGAAATC; DNA, all phosphorothioate, methylation of C not given here) [ISIS 14319, 12560 scrambled control, 2′-deoxy-phosphorothioate, reference compound]
- dose- and sequence-dependent response on JNK2 mRNA levels [1]: neither of the control oligonucleotides effect any consistent response
